According to patent publication US9040563B2, “Dual inhibitors of farnesyltransferase and geranylgeranyltransferase I” (H. Lee Moffitt Cancer Center and Research Institute, Inc., priority 2010, dated 2015):
Read-outs that look alike come from different tables or passages of the source.

Columns and labels:
hFTase = hFTase (Homo sapiens, UniProt P49354+P49356); test: In vitro hFTase inhibition: incorporation of [3H]FPP into recombinant H-Ras-CVLS; type: biochemical; conditions: for selectivity (ratio of GGTase-I to FTase IC50s): GGTase-I IC50 / hFTase IC50; for GGTase-I/FTase selectivity: selectivity for hFTase over GGTase-I; for IC50: in vitro, average of three independent assays (n = 3) unless stated, errors are standard deviations
farnesylation of H-Ras = test: Whole cell inhibition of H-Ras processing (farnesylation), immunoblot, oncogenic H-Ras-transformed NIH3T3 cells; type: cell-based, mouse; conditions: Mus musculus, NIH3T3, whole cells, oncogenic H-Ras-transformed NIH3T3; n = 3 unless stated; read-out: H-Ras processing IC50
Experimental: (§1) In vitro inhibition assays for FTase and GGTase-I were conducted by measuring the incorporation of [^3H]FPP and [^3H]GGPP into recombinant H-Ras-CVLS and H-Ras-CVLL, respectively, as previously described (Vogt, et al., Protein geranylgeranylation, not farnesylation, is required for the G1 to S phase transition in mouse fibroblasts. Oncogene, 1996, 13, 1991-1999). The in vivo inhibition of farnesylation and geranylgeranylation was determined based on the level of inhibition by synthetic compounds of H-Ras and Rap1A processing, respectively (Sun, et al., Both farnesyltransferase and geranylgeranyltransferase I inhibitors are required for inhibition of oncogenic K-Ras prenylation but each alone is sufficient to suppress human tumor growth in nude mouse xenografts. Oncogene, 1998, 16, 1467-1473). […] The separated proteins were transferred to nitrocellulose and immunoblotted using an anti-Ras antibody (Y13-258) or an anti-Rap1A antibody (SantaCruz Biotechnology, Santa Cruz, Calif.), respectively. Antibody reactions were visualized using either peroxidase-conjugated goat anti-rat IgG or goat anti-rabbit IgG (Jackson ImmunoResearch, West Grove, Pa.) and an enhanced chemiluminescence detection system.
(§2) Briefly, in vitro inhibition assays for hFTase and GGTase-I were carried out by measuring the incorporation of [^3H]FPP and [^3H]GGPP into recombinant H-Ras-CVLS and H-Ras-CVLL, respectively, as described previously (Vogt et al., Protein geranylgeranylation, not farnesylation, is required for G1 to S phase transition in mouse fibroblasts. Oncogene. 1996; 13:1991-1999). Whole cell inhibition of farnesylation and geranylgeranylation were determined based on the level of inhibition by synthetic compounds of H-Ras and Rap1A processing, respectively (Sun, et al., Both farnesyltransferase and geranylgeranyltransferase I inhibitors are required for inhibition of oncogenic K-Ras prenylation but each alone is sufficient to suppress human tumor growth in nude mouse xenografts. Oncogene. 1998; 16:1467-1473).

[1] = system: geranylgeranylation of Rap1A; test: Whole cell inhibition of Rap1A processing (geranylgeranylation), immunoblot, oncogenic H-Ras-transformed NIH3T3 cells; type: cell-based, mouse; conditions: whole cells, oncogenic H-Ras-transformed NIH3T3, n = 3 unless stated, read-out: Rap1A processing IC50
Experimental: as §1, §2

GGTase-I = GGTase-I (Homo sapiens, UniProt P49354+P53609); test: In vitro GGTase-I inhibition: incorporation of [3H]GGPP into recombinant H-Ras-CVLL; type: biochemical; conditions: average of n = 3 unless stated, errors are standard deviations, read-out: GGTase-1 IC50

selectivity (ratio of GGTase-I to FTase IC50s) (hFTase) | IC50 (farnesylation of H-Ras) | IC50 ([1]; Mus musculus) | GGTase-I/FTase selectivity (hFTase) | IC50 (hFTase) | IC50 (GGTase-I) | IC50 [1] | Structure (SMILES)
>14 | 6 µM | > 10 µM |  |  |  |  | C#CCN(CCN(Cc1cncn1C)c1ccc(C#N)cc1)S(=O)(=O)c1cn(C)cn1 [1aa]
5.3 | > 10 µM | > 10 µM | about 5 fold |  |  |  | C=C(C)CN(CCN(Cc1cncn1C)c1ccc(C#N)cc1)S(=O)(=O)c1cn(C)cn1 [1ac]
31 | 5.7 ± 1.5 µM | > 10 µM |  |  |  |  | C=C(Br)CN(CCN(Cc1cncn1C)c1ccc(C#N)cc1)S(=O)(=O)c1cn(C)cn1 [1ad]
7.1 | > 10 µM | > 10 µM |  |  |  |  | Cn1cnc(S(=O)(=O)N(CCN(Cc2cncn2C)c2ccc(C#N)cc2)CC(=O)NC(C)(C)C)c1 [1ae]
>139 | > 10 µM | > 10 µM |  |  |  |  | Cn1cnc(S(=O)(=O)N(CCN(Cc2cncn2C)c2ccc(C#N)cc2)Cc2ccncc2)c1 [1af]
17 | 4.3 ± 1.5 µM | > 10 µM |  |  |  |  | Cn1cnc(S(=O)(=O)N(CCN(Cc2cncn2C)c2ccc(C#N)cc2)CCn2cccc2)c1 [1ag]
>1.6 | > 10 µM | > 10 µM |  |  |  |  | Cc1nc(C)c(CN(CCN(Cc2cncn2C)c2ccc(C#N)cc2)S(=O)(=O)c2cn(C)cn2)s1 [1am, [N-(2,4-Dimethyl-thiazol-5-ylmethyl), N-{2-[(4-cyanophenyl)-(3-methyl-3H-imidazol-4-ylmethyl)-amino]-ethyl}]1-methyl-1H-imidazole-4-sulfonamide]
18 | > 10 µM | > 10 µM |  |  |  |  | Cn1cnc(S(=O)(=O)N(CCN(Cc2cncn2C)c2ccc(C#N)cc2)Cc2ccc(C#N)cc2)c1 [1as]
>17 | > 10 µM | > 10 µM |  |  |  |  | Cn1cnc(S(=O)(=O)N(CCN(Cc2cncn2C)c2ccc(C#N)cc2)CC2CC2)c1 [1aw, [N-(Cyclopropylmethyl), N-{2-[(4-cyanophenyl)-(3-methyl-3H-imidazol-4-ylmethyl)-amino]-ethyl}]1-methyl-1H-imidazole-4-sulfonamide]
>2.7 | > 2 µM | > 2 µM |  |  |  |  | Cn1cnc(S(=O)(=O)N(CCN(Cc2cncn2C)c2ccc(C#N)cc2)CC2CCN(C(=O)OC(C)(C)C)CC2)c1 [1ay]
65 |  |  |  | 0.085 ± 0.0007 µM | 5.5 ± 2.7 µM |  | Cn1cncc1CN(CCN(Cc1ccccc1)S(=O)(=O)C1CC1)c1ccc(C#N)cc1 [1c, N-Benzyl, N-{2-[(4-cyanophenyl)-(3-methyl-3H-imidazol-4-ylmethyl)-amino]-ethyl}cyclopropanesulfonamide]
200 |  | > 10 µM |  |  | ≥ 10 µM |  | Cn1cncc1CN(CCN(Cc1ccccc1)S(=O)(=O)c1cccs1)c1ccc(C#N)cc1 [1e]
 |  | > 10 µM | 333 fold |  | ≥ 10 µM |  | Cn1cncc1CN(CCN(Cc1ccccc1)S(=O)(=O)c1cccc2cccnc12)c1ccc(C#N)cc1 [1g]
63 | 0.5 ± 0.3 µM | > 10 µM |  |  | ≥ 10 µM |  | CN(C)c1cccc2c(S(=O)(=O)N(CCN(Cc3cncn3C)c3ccc(C#N)cc3)Cc3ccccc3)cccc12 [1h]
1.5 | 0.268 ± 0.212 µM | 6.2 ± 1.2 µM |  |  |  |  | Cn1cncc1CN(CCN(CC1CCCCC1)S(=O)(=O)c1ccccn1)c1ccc(C#N)cc1 [21a, N-(2-((4-cyanophenyl)((1-methyl-1H-imidazol-5-yl)methyl)amino)ethyl)-N-(cyclohexylmethyl)pyridine-2-sulfonamide]
2 | 0.288 ± 0.251 µM | 19 µM |  |  |  |  | Cn1cncc1CN(CCN(CC1CCCCC1)S(=O)(=O)c1ccccn1)c1ccc(C#N)cn1 [21c, N-(2-((5-cyanopyridin-2-yl)((1-methyl-1H-imidazol-5-yl)methyl)amino)ethyl)-N-(cyclohexylmethyl)pyridine-2-sulfonamide]
 | 1.9 ± 1.2 µM | > 10 µM |  |  |  |  | Cn1cnc(S(=O)(=O)N(CCN(Cc2cncn2C)c2ccc(C#N)cc2)Cc2ccccc2)c1 [compound 1a]
19 | 0.65 µM | > 10 µM |  |  |  |  | Cn1cnc(S(=O)(=O)N(CCN(Cc2cncn2C)c2ccc(C#N)cc2)Cc2ccoc2)c1 [compound 1ah, [N-(Furan-3-ylmethyl), N-{2-[(4-cyanophenyl)-(3-methyl-3H-imidazol-4-ylmethyl)-amino]-ethyl}]1-methyl-1H-imidazole-4-sulfonamide]
2.7 | > 10 µM | > 10 µM |  |  |  |  | Cc1noc(C)c1CN(CCN(Cc1cncn1C)c1ccc(C#N)cc1)S(=O)(=O)c1cn(C)cn1 [compound 1al, [N-(3,5-Dimethyl-isoxazol-4-ylmethyl), N-{2-[(4-cyanophenyl)-(3-methyl-3H-imidazol-4-ylmethyl)-amino]-ethyl}]1-methyl-1H-imidazole-4-sulfonamide]
>1.9 |  |  |  | 5.3 ± 1.7 µM | > 10 µM |  | Cc1nn(C)c(C)c1CN(CCN(Cc1cncn1C)c1ccc(C#N)cc1)S(=O)(=O)c1cn(C)cn1 [compound 1an, [N-(1,3,5-Trimethyl-1H-pyrazol-4-ylmethyl), N-{2-[(4-cyanophenyl)-(3-methyl-3H-imidazol-4-ylmethyl)-amino]-ethyl}]1-methyl-1H-imidazole-4-sulfonamide]
>20 | > 10 µM | > 10 µM |  |  |  |  | Cn1cnc(S(=O)(=O)N(CCN(Cc2cncn2C)c2ccc(C#N)cc2)CC2CCN(c3ncccn3)CC2)c1 [compound 1az]
85 |  | > 10 µM |  | 0.048 ± 0.035 µM | 4.1 ± 1.7 µM |  | CCCS(=O)(=O)N(CCN(Cc1cncn1C)c1ccc(C#N)cc1)Cc1ccccc1 [compound 1b, N-Benzyl, N-{2-[(4-cyanophenyl)-(3-methyl-3H-imidazol-4-ylmethyl)-amino]-ethyl}propane-1-sulfonamide]
 | 0.09 ± 0.06 µM | > 10 µM |  |  |  |  | Cn1cncc1CN(CCN(Cc1ccccc1)S(=O)(=O)c1ccccn1)c1ccc(C#N)cc1 [compound 1f]
1.6 |  | > 10 µM |  | 6.3 ± 0.36 µM |  |  | Cn1cnc(S(=O)(=O)N(CCN(Cc2cnc[nH]2)c2ccccc2)Cc2ccccc2)c1 [compound 3]
6.0 | 5.7 ± 1.2 µM | > 10 µM |  | 0.73 ± 0.02 µM | 4.4 µM |  | Cn1cnc(S(=O)(=O)N(CCN(Cc2cnc[nH]2)c2ccc(Br)cc2)Cc2ccccc2)c1 [compound 4]
6.7 | 1.6 ± 1.3 µM |  |  | 0.079 ± 0.03 µM | 0.53 ± 0.17 µM | > 10 µM | Cn1cnc(S(=O)(=O)N(CCN(Cc2cncn2C)c2ccc(Br)cc2)Cc2ccccc2)c1 [compound 5]
